In brackets after ≈: the same amount, converted by molar mass.
Experiments:
Candida tropicalis = assay: Inhibition of Candida tropicalis ATCC750 chitin synthase at 300 ug/ml using UDP-GlcNAc as substrate incubated for 1 hr by microplate reader analysis relative to control; conditions: dose 300.0 µg/ml
[1] = Inhibition of Candida tropicalis ATCC750 chitin synthase using UDP-GlcNAc as substrate incubated for 1 hr by microplate reader analysis
Candida albicans [2] = assay: Antifungal activity against Candida albicans ATCC 76615 assessed as reduction in fungal growth incubated for 24 hrs by two fold broth dilution method; assay type: functional
Aspergillus flavus [3] = assay: Antifungal activity against Aspergillus flavus ATCC 16870 assessed as reduction in fungal growth incubated for 24 hrs by two fold broth dilution method; assay type: functional
Aspergillus fumigatus [4] = assay: Antifungal activity against Aspergillus fumigatus GIMCC 3.19 assessed as reduction in fungal growth incubated for 24 hrs by two fold broth dilution method; assay type: functional
Cryptococcus neoformans [5] = assay: Antifungal activity against Cryptococcus neoformans ATCC 32719 assessed as reduction in fungal growth incubated for 24 hrs by two fold broth dilution method; assay type: functional
Candida albicans [6] = assay: Antifungal activity against Candida albicans ATCC 76615 assessed as reduction in fungal growth in presence of sorbitol incubated for 24 hrs by two fold broth dilution method; assay type: functional
Aspergillus flavus [7] = assay: Antifungal activity against Aspergillus flavus ATCC 16870 assessed as reduction in fungal growth in presence of sorbitol incubated for 24 hrs by two fold broth dilution method; assay type: functional
Aspergillus fumigatus [8] = assay: Antifungal activity against Aspergillus fumigatus GIMCC 3.19 assessed as reduction in fungal growth in presence of sorbitol incubated for 24 hrs by two fold broth dilution method; assay type: functional
Cryptococcus neoformans [9] = assay: Antifungal activity against Cryptococcus neoformans ATCC 32719 assessed as reduction in fungal growth in presence of sorbitol incubated for 24 hrs by two fold broth dilution method; assay type: functional
Candida albicans [10] = assay: Antifungal activity against fluconazole resistant Candida albicans ATCC 76615 assessed as reduction in fungal growth incubated for 24 hrs by two fold broth dilution method; assay type: functional
Aspergillus flavus [11] = assay: Antifungal activity against fluconazole resistant Aspergillus flavus ATCC 16870 assessed as reduction in fungal growth incubated for 24 hrs by two fold broth dilution method; assay type: functional
Aspergillus fumigatus [12] = assay: Antifungal activity against fluconazole resistant Aspergillus fumigatus GIMCC 3.19 assessed as reduction in fungal growth incubated for 24 hrs by two fold broth dilution method; assay type: functional
Cryptococcus neoformans [13] = assay: Antifungal activity against fluconazole resistant Cryptococcus neoformans ATCC 32719 assessed as reduction in fungal growth incubated for 24 hrs by two fold broth dilution method; assay type: functional
Candida albicans [14] = assay: Antifungal activity against micafungin resistant Candida albicans ATCC 76615 assessed as reduction in fungal growth incubated for 24 hrs by two fold broth dilution method; assay type: functional
Candida albicans [15] = assay: Antifungal activity against Candida albicans ATCC 76615 incubated for 72 hrs in presence of fluconazole by checker board assay; assay type: functional
Aspergillus flavus [16] = assay: Antifungal activity against Aspergillus flavus ATCC 16870 incubated for 72 hrs in presence of fluconazole by checker board assay; assay type: functional
Aspergillus fumigatus [17] = assay: Antifungal activity against Aspergillus fumigatus GIMCC 3.19 incubated for 72 hrs in presence of fluconazole by checker board assay; assay type: functional
Cryptococcus neoformans [18] = assay: Antifungal activity against Cryptococcus neoformans ATCC 32719 incubated for 72 hrs in presence of fluconazole by checker board assay; assay type: functional
Candida albicans [19] = assay: Antifungal activity against Candida albicans ATCC 76615 assessed as fluconazole MIC incubated for 72 hrs by checker board assay; assay type: functional
Aspergillus flavus [20] = assay: Antifungal activity against Aspergillus flavus ATCC 16870 assessed as fluconazole MIC incubated for 72 hrs by checker board assay; assay type: functional
Aspergillus fumigatus [21] = assay: Antifungal activity against Aspergillus fumigatus GIMCC 3.19 assessed as fluconazole MIC incubated for 72 hrs by checker board assay; assay type: functional
Cryptococcus neoformans [22] = assay: Antifungal activity against Cryptococcus neoformans ATCC 32719 assessed as fluconazole MIC incubated for 72 hrs by checker board assay; assay type: functional
Cryptococcus neoformans [23] = assay: Synergistic antifungal activity against Cryptococcus neoformans ATCC 32719 assessed as fractional inhibitory concentration index incubated for 72 hrs in presence of fluconazole by checker board assay; assay type: functional
Candida albicans [24] = assay: Synergistic antifungal activity against Candida albicans ATCC 76615 assessed as fractional inhibitory concentration index incubated for 72 hrs in presence of fluconazole by checker board assay; assay type: functional
Aspergillus flavus [25] = assay: Synergistic antifungal activity against Aspergillus flavus ATCC 16870 assessed as fractional inhibitory concentration index incubated for 72 hrs in presence of fluconazole by checker board assay; assay type: functional
Aspergillus fumigatus [26] = assay: Synergistic antifungal activity against Aspergillus fumigatus GIMCC 3.19 assessed as fractional inhibitory concentration index incubated for 72 hrs in presence of fluconazole by checker board assay; assay type: functional
Candida albicans [27] = assay: Antifungal activity against Candida albicans ATCC 76615 incubated for 72 hrs in presence of polyoxin B by checker board assay; assay type: functional
Aspergillus flavus [28] = assay: Antifungal activity against Aspergillus flavus ATCC 16870 incubated for 72 hrs in presence of polyoxin B by checker board assay; assay type: functional
Aspergillus fumigatus [29] = assay: Antifungal activity against Aspergillus fumigatus GIMCC 3.19 incubated for 72 hrs in presence of polyoxin B by checker board assay; assay type: functional
Cryptococcus neoformans [30] = assay: Antifungal activity against Cryptococcus neoformans ATCC 32719 incubated for 72 hrs in presence of polyoxin B by checker board assay; assay type: functional
Candida albicans [31] = assay: Synergistic antifungal activity against Candida albicans ATCC 76615 assessed as fractional inhibitory concentration index incubated for 72 hrs in presence of polyoxin B by checker board assay; assay type: functional
Aspergillus flavus [32] = assay: Synergistic antifungal activity against Aspergillus flavus ATCC 16870 assessed as fractional inhibitory concentration index incubated for 72 hrs in presence of polyoxin B by checker board assay; assay type: functional
Aspergillus fumigatus [33] = assay: Synergistic antifungal activity against Aspergillus fumigatus GIMCC 3.19 assessed as fractional inhibitory concentration index incubated for 72 hrs in presence of polyoxin B by checker board assay; assay type: functional
Cryptococcus neoformans [34] = assay: Synergistic antifungal activity against Cryptococcus neoformans ATCC 32719 assessed as fractional inhibitory concentration index incubated for 72 hrs in presence of polyoxin B by checker board assay; assay type: functional
Candida albicans [35] = assay: Antifungal activity against Candida albicans ATCC 76615 assessed as polyoxin B MIC incubated for 72 hrs by checker board assay; assay type: functional
Aspergillus flavus [36] = assay: Antifungal activity against Aspergillus flavus ATCC 16870 assessed as polyoxin B MIC incubated for 72 hrs by checker board assay; assay type: functional
Aspergillus fumigatus [37] = assay: Antifungal activity against Aspergillus fumigatus GIMCC 3.19 assessed as polyoxin B MIC incubated for 72 hrs by checker board assay; assay type: functional
Cryptococcus neoformans [38] = assay: Antifungal activity against Cryptococcus neoformans ATCC 32719 assessed as polyoxin B MIC incubated for 72 hrs by checker board assay; assay type: functional

| SMILES | inhibition (Candida tropicalis) | IC50 [1] | MIC (Candida albicans [2]) | MIC (Aspergillus flavus [3]) | MIC (Aspergillus fumigatus [4]) | MIC (Cryptococcus neoformans [5]) | MIC (Candida albicans [6]) | MIC (Aspergillus flavus [7]) | MIC (Aspergillus fumigatus [8]) | MIC (Cryptococcus neoformans [9]) | MIC (Candida albicans [10]) | MIC (Aspergillus flavus [11]) | MIC (Aspergillus fumigatus [12]) | MIC (Cryptococcus neoformans [13]) | MIC (Candida albicans [14]) | MIC (Candida albicans [15]) | MIC (Aspergillus flavus [16]) | MIC (Aspergillus fumigatus [17]) | MIC (Cryptococcus neoformans [18]) | MIC (Candida albicans [19]) | further results |
| --- | --- | --- | --- | --- | --- | --- | --- | --- | --- | --- | --- | --- | --- | --- | --- | --- | --- | --- | --- | --- | --- |
| O=C(/C=C/C(=O)N1CCCC12Cc1ccccc1NC2=O)Nc1ccc(Cl)c(F)c1 (stereo not drawn) | 82.6% | 110 µM | 2 µg/mL (≈ 4.67 µM) | 4 µg/mL (≈ 9.35 µM) | 4 µg/mL (≈ 9.35 µM) | 8 µg/mL (≈ 18.7 µM) | 16 µg/mL | 64 µg/mL | 32 µg/mL | 64 µg/mL | 32 µg/mL (≈ 74.8 µM) | 32 µg/mL (≈ 74.8 µM) | 128 µg/mL (≈ 299 µM) | 256 µg/mL (≈ 598 µM) | 32 µg/mL (≈ 74.8 µM) | 0.5 µg/mL | 2 µg/mL | 1 µg/mL | 4 µg/mL | 1 µg/mL | MIC (Aspergillus flavus [20]): 1 µg/mL; MIC (Aspergillus fumigatus [21]): 1 µg/mL; MIC (Cryptococcus neoformans [22]): 8 µg/mL; fractional inhibitory concentration index (FICI) (Cryptococcus neoformans [23]): 1.5; fractional inhibitory concentration index (FICI) (Candida albicans [24]): 0.5; fractional inhibitory concentration index (FICI) (Aspergillus flavus [25]): 0.63; fractional inhibitory concentration index (FICI) (Aspergillus fumigatus [26]): 0.5; MIC (Candida albicans [27]): 2 µg/mL; MIC (Aspergillus flavus [28]): 4 µg/mL; MIC (Aspergillus fumigatus [29]): 2 µg/mL; MIC (Cryptococcus neoformans [30]): 4 µg/mL; fractional inhibitory concentration index (FICI) (Candida albicans [31]): 2; fractional inhibitory concentration index (FICI) (Aspergillus flavus [32]): 2; fractional inhibitory concentration index (FICI) (Aspergillus fumigatus [33]): 0.75; fractional inhibitory concentration index (FICI) (Cryptococcus neoformans [34]): 0.75; MIC (Candida albicans [35]): 8 µg/mL; MIC (Aspergillus flavus [36]): 8 µg/mL; MIC (Aspergillus fumigatus [37]): 2 µg/mL; MIC (Cryptococcus neoformans [38]): 4 µg/mL |
| O=C(/C=C/C(=O)N1CCCC12Cc1ccccc1NC2=O)Nc1ccccc1[N+](=O)[O-] (stereo not drawn) | 80.9% | 110 µM | 4 µg/mL (≈ 9.51 µM) | 4 µg/mL (≈ 9.51 µM) | 4 µg/mL (≈ 9.51 µM) | 16 µg/mL (≈ 38.1 µM) | 32 µg/mL | 64 µg/mL | 32 µg/mL | 64 µg/mL | 64 µg/mL (≈ 152 µM) | 64 µg/mL (≈ 152 µM) | 64 µg/mL (≈ 152 µM) | 64 µg/mL (≈ 152 µM) | 64 µg/mL (≈ 152 µM) | 2 µg/mL | 2 µg/mL | 1 µg/mL | 8 µg/mL | 2 µg/mL | MIC (Aspergillus flavus [20]): 2 µg/mL; MIC (Aspergillus fumigatus [21]): 2 µg/mL; MIC (Cryptococcus neoformans [22]): 4 µg/mL; fractional inhibitory concentration index (FICI) (Cryptococcus neoformans [23]): 1; fractional inhibitory concentration index (FICI) (Candida albicans [24]): 1; fractional inhibitory concentration index (FICI) (Aspergillus flavus [25]): 0.75; fractional inhibitory concentration index (FICI) (Aspergillus fumigatus [26]): 0.75; MIC (Candida albicans [27]): 2 µg/mL; MIC (Aspergillus flavus [28]): 4 µg/mL; MIC (Aspergillus fumigatus [29]): 2 µg/mL; MIC (Cryptococcus neoformans [30]): 4 µg/mL; fractional inhibitory concentration index (FICI) (Candida albicans [31]): 1; fractional inhibitory concentration index (FICI) (Aspergillus flavus [32]): 1.5; fractional inhibitory concentration index (FICI) (Aspergillus fumigatus [33]): 1.5; fractional inhibitory concentration index (FICI) (Cryptococcus neoformans [34]): 0.75; MIC (Candida albicans [35]): 4 µg/mL; MIC (Aspergillus flavus [36]): 4 µg/mL; MIC (Aspergillus fumigatus [37]): 8 µg/mL; MIC (Cryptococcus neoformans [38]): 8 µg/mL |
